Read-outs that look alike come from different tables or passages of the source.
How the values were obtained:
[1] = Plasma levels and bioavailability in rats; conditions: male, Sprague Dawley, rat, in vivo, po, 10 mg/kg
Procedure: (§1) The plasma levels of a compound following a single intravenous and oral administration in carotid artery-cannulated male Sprague Dawley rats was determined. Plasma samples were collected and used to determine the plasma concentration of the compound and metabolites. In addition tissue samples, including whisker samples and PBMC cells were collected for telomerase activity analysis.
(§2) Carotid artery-cannulated male Sprague Dawley rats were divided into treatment groups according to Table 6. The rats were provided ad libitum SLAC-MO1 # YY080208 (Shanghai Laboratories Animal Center, Shanghai, China) throughout the in-life portion of the study with the exception of the overnight fasting period prior to oral dosing. Water was available ad libitum.
The compounds were dissolved in 2% EtOH/98% water to yield a final concentration of 2.5 mg/ml and 1 mg/ml for both intravenous and oral administration, respectively. The concentration of each compound was confirmed by HPLC analysis.
Body weights were taken on the day of dose administration. Dose volume was determined based on individual body weight taken on day of dosing.
(§3) Blood samples (approximately 250 μL) were collected via cannulae into tubes containing K2-EDTA anticoagulant and 1 mg/ml NaF at the various time points. Blood was stored on ice and then plasma separated via centrifugation (8000 rpm×6 minutes). The plasma was stored at […] until LC-MS/MS analysis.
Percentage of bioavailability was calculated.

[2] = design: species or system male Beagle dogs; conditions: male, Beagle, dog, in vivo, po, 10 mg/kg
Procedure: as §1, with “level” for “levels”, “in” for “in carotid artery-cannulated”, “Beagle dogs” for “Sprague Dawley rats”
as §2, with “Male Beagle dogs” for “Carotid artery-cannulated male Sprague Dawley rats”, “5.” for “6.”, “dogs” for “rats”, “#W080701” for “# YY080208”
The compounds were dissolved in 2% EtOH/98% water […] to yield a final concentration of 2.5 mg/ml and 1 mg/ml for both intravenous and oral administration, respectively. The concentration of each compound was confirmed by HPLC analysis.
Doses were administered intravenously via the left femoral vein and then by oral dosing one week later. Body weights were taken on the day of dose administration. Dose volume was determined based on individual body weight taken on day of dosing.
as §3, with “right femoral vein” for “cannulae”, “appropriate” for “the various”

[3] = molecular target: T1, telomerase (Homo sapiens, UniProt O14746); test: Keratinocyte cell/TRAP assay (HEKneo-P cells); type: cell-based; design: host or cells: HEKneo-P (pooled neonatal human epidermal keratinocytes)
T1 sequence (O14746 whole entry): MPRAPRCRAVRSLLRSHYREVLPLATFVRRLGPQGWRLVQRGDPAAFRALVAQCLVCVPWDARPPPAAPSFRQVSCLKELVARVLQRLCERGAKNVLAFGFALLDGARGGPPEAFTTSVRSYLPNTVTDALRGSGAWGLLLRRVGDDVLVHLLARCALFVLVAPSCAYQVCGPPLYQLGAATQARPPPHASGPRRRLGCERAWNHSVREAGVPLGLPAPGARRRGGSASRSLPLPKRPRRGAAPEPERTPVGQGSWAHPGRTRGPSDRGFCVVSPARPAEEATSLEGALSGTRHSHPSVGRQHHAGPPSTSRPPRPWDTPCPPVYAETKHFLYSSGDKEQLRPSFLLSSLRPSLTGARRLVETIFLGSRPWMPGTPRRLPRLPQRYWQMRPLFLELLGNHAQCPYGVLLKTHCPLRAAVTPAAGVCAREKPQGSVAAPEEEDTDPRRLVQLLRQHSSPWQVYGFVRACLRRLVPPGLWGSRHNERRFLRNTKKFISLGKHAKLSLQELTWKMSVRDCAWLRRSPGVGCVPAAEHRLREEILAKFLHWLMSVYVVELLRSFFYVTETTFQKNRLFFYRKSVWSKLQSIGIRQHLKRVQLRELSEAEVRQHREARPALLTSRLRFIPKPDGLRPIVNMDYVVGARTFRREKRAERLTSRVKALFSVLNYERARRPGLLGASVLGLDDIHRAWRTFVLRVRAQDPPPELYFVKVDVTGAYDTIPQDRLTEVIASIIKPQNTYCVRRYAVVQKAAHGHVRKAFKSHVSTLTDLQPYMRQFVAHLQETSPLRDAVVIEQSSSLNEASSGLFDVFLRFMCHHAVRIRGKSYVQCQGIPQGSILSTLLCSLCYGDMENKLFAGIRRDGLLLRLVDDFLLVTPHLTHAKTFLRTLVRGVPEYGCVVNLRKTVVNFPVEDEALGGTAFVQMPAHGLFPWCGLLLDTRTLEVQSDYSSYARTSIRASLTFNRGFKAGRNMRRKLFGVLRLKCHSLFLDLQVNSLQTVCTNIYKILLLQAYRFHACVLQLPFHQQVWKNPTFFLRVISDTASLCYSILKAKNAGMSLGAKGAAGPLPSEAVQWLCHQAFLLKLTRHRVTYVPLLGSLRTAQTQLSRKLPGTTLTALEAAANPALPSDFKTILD
Description: Harley et al., U.S. Pat. […] Harley et al., U.S. Pat. […] Non-treatment control (NT) was also included. […]

[4] = molecular target: T1, telomerase; test: Peripheral blood monocyte cell (PBMC)/TRAP assay; type: cell-based; design: host or cells: HEKneo-P (pooled neonatal human epidermal keratinocytes); conditions: 24 hours
Description: Cell lines suitable for use in the assay, normal human peripheral blood mononuclear cells (PBMCs) or Human Epidermal Keratinocytes (neonatal) (HEKs), can be obtained from commercial sources, such as Cascade Biologics, Portland, Oreg. or 4C Biotech, Seneffe, Belgium, or from the ATCC (American Type Culture Collection). ATCC normal human fibroblast cell lines, which can be located on the ATCC web site, include for example, CCL135, CCL137, and CCL151.
PBMC Isolation. Blood was collected in sodium heparin vacutainers and pooled into a single 50 mL polypropylene tube. Blood was diluted 1:1 with 1×PBS and mixed thoroughly by inversion. 25 mL of diluted blood was layered over 12 mL of Lympholyte-H (Cedarlane Laboratories) and centrifuged at room temperature for 20 min at 800 g. […]
Culture Conditions. The cells were counted using Trypan Blue exclusion and resuspended in complete media that is supplemented with 50 Units of hIL-2/mL so that final concentration of cells is 1×10^6/mL. […] At least once a week, cells are counted and media level is adjusted to keep cells around 5—10^5/mL. […]
Treatment with Analogs. After 10-14 days in culture, cells were counted and resuspended in conditioned media at a concentration of 1×10^6/mL. […]
TRAP Reaction and Gel. Samples were analyzed using a 1-step TRAP PCR reaction. […]

For `CC(C)(O)[C@@H]1CC[C@](C)([C@H]2[C@@H](O)C[C@@]3(C)[C@@H]4C[C@H](O)[C@H]5C(C)(C)[C@@H](O)CC[C@@]56C[C@@]46CC[C@]23C)O1` [Compound 2, 17-[5-(1-Hydroxy-1-methyl-ethyl)-2-methyl-tetrahydro-furan-2-yl]-4,4,13,14-tetramethyl-tetradecahydro-cyclopropa[9,10]cyclopenta[a]phenanthrene-3β,6α,16β-triol, reference compound], the “Bioavailability % F” value [1] was 22.6%, the “Bioavailability % F” value [2] was 3% and the “Max fold increase of activity” value [3] was 3.3 fold. For the same molecule, the “Activity in in vitro HEK assay” value ([3]; 24 hr, 0.01 to 10 μM, vs vehicle control at peak of full dose curve) was “+ (telomerase activation is 2 fold or more in comparison with vehicle control at the peak of the full dose curve.)”, the EC50 ([3]; telomerase activation) was 30 nM and the “Fold increase at 1 μM” value [4] was 1.6-20.7 fold.

Source: patent US9403866B2, “Compositions and methods for increasing telomerase activity” (Telomerase Activation Sciences, Inc., priority 2009, dated 2016)
